Measured values taken from patent publication US6277845A, “Hydrazono-benzazulene derivatives, pharmaceutical compositions and intermediates” (Aventis Pharma S.A., priority 1997, dated 2001).
pIC50: −log10 of the molar value. Structures can show the parent of a compound that is named as a salt.

Assays:
human αvβ3 receptor = human αvβ3 receptor (Homo sapiens, UniProt P05106+P06756); assay: Bond displacement / binding competition test: Vitronectin/Vitronectin Receptor (αvβ3), plate assay; conditions: human vitronectin coated plates, 3 hours at ambient temperature, read-out: Binding competition test Vn/VR (αvβ3) IC50
Description: Pharmacological Study of the Products of the Invention 1--Study by the Products of the Invention of the Bond Displacement: Vitronectin/Vitronectin Receptor (αvβ3) 96-well MaxiSorp plates are coated overnight at 4° C., with 100 μl of human Vitronectin (cf Yatohgo et al. Cell., Structure and fraction 13: 281-292 (1988)) at 2 μg/ml, (Dilution in coating buffer).
The next day, the wells are emptied and the ligands (Vitronectin) are then fixed (see fixation buffer) for 1 hour at ambient temperature under gentle agitation.
The wells are washed six times (see washing buffer), then the following are added per well and in this order:
40 μl of incubation buffer, 10 μl of the dilution of the product to be tested, (the products are diluted in a 50/50 mixture of DMSO-H2 O) 50 μl of human αvβ 3 receptor (cf Pytela et al. Methods Enzymol (1987) 144:475) (dilution in incubation buffer, adapted according to the batch of receptor and according to the ligand).
The ligand, the human αvβ3 receptor and the products to be studied are incubated for 3 hours at ambient temperature under gentle agitation.
The wells are again washed six times, then incubated for 2 hours at ambient temperature under gentle agitation, in the presence of 100 μl of 4B12-HRP antibody, anti-receptor coupled to a peroxidase (the 4B12-HRP antibody is diluted in incubation buffer. The dilution is adapted according to the batch of receptor).
The wells are then washed six times before measurement of ligand-receptor bond is carried out using a peroxidase developer kit (TMB Microwell Peroxidase Substrate System Kirkegaard: Ref. cat. 50-76-00).
This kit contains a flask A of substrate (3,3', 5,5'-tetramethylbenzidine at 0.4 g/l) and a flask B (H2 O2 at 0.02% in Citrate/Citric acid buffer). Extemporaneously, one volume of A is mixed with one volume of B, then the reaction mixture is distributed at the rate of 100 µl/well. The enzymatic reaction develops in 12' for Vitronectin/αvβ3, then its development is stopped by the addition of 100 μl of 1M phosphoric acid.
The optical density is measured at 450 nm. […]
coating buffer: 0.05 M Carbonate, NaOH pH 9.6 fixation buffer: PBS containing 0.5% of BSA (pH 7.4) washing buffer: PBS containing 0.05% of Tween 20 (pH 7.4)
The following curve is plotted: the percentage of bond of human vitronectin as a function of the logarithm of the concentration of each product tested.
For each product the IC50 is determined according to the following formula:
BO=Maximum bond in the absence of any product
Bmin=Minimum bond in the presence of the highest concentration of product.

bone resorption [1] = conditions: in vivo in the rat, Fisher et al.; cited from earlier work
osteoclasts = conditions: cited from earlier work
bone resorption [2] = conditions: Sato et al.; cited from earlier work

Row | Compound | pIC50 (human αvβ3 receptor) | inhibition of bone resorption in vivo (bone resorption [1]) | inhibition of the adhesion of the osteoclasts to bone (osteoclasts) | inhibition of bone resorption in tissues cultured in vitro (bone resorption [2])
1 | COc1c(SCCC(NC(=O)OCc2ccccc2)C(=O)O)cc2c(c1OC)C1=C(CCC1)C(=NNC1=NCCN1)CC2 (racemic) [Example 1, S-[4-[(4,5-dihydro-1H-imidazol-2-yl)hydrazono]-9,10-dimethoxy-1,2,3,4,5,6-hexahydro-8-benz[e]azulenyl]-N-[(phenylmethoxy)carbonyl]-DL-homocysteine] | 7.40 | – | – | –
2 | O=C(NC(CCSc1ccc2c(c1)CCC(=NN=C1NCCN1)C1=C2CCC1)C(=O)O)OCc1ccccc1 (racemic) [Example 4, S-[4-[(2-imidazolidinylidene)hydrazono]-1,2,3,4,5,6-hexahydro-8-benz[e]azulenyl]-N-[(phenylmethoxy)carbonyl]-DL-homocysteine] | 7.52 | – | – | –
3 | O=C(NC(CCS(=O)(=O)c1ccc2c(c1)CCC(=NNC1=NCCN1)C1=C2CCC1)C(=O)O)OCc1ccccc1 (stereo not shown) [Example 5, hydrochloride of 4-[[4-[(2-imidazoli-dinylidene)hydrazono]-1,2,3,4,5,6-hexahydro-8-benz[e]azulenyl]sulphonyl]-2-[[(phenylmethoxy)carbonyl]amino]-butanoic acid] | 7.48 | – | – | –
4 | O=C(NC(CC[S+]([O-])c1ccc2c(c1)CCC(=NN=C1NCCN1)C1=C2CCC1)C(=O)O)OCc1ccccc1 (stereo not shown) [Example 6, 4-[[4-[(2-imidazolidinylidene)hydrazono]-1,2,3,4,5,6-hexahydro-8-benz[e]azulenyl]sulphinyl]-2-[[(phenylmethoxy)carbonyl]amino]-butanoic acid] | 6.64 | – | – | –
5 | Echistatin | – | powerful inhibitor of bone resorption | inhibitor of the adhesion of the osteoclasts to bone | powerful inhibitor of bone resorption
